# Experimental data: US8338410B2, “Neuroprotective compounds and pharmaceutical compositions comprising them” (Biocodex, priority 2005, dated 2012)
# Tested on: mixed cultures of rat cortical neurones and astrocytes
# Assay: Density of neuritic extensions marked by anti-neurofilament antibody, with or without excess glutamate
# Format: cell-based
# Conditions: for density of neurofilaments: control culture medium
# From the text: The principle of the investigation consisted of evaluating the survival of cortical neurones in co-culture with astrocytes after the application of a neurotoxic agent, excess glutamate.
# Neurone survival is quantified by the density of the system of neuritic extensions marked by an anti-neurofilament antibody in the absence or presence of glutamate.
# • Cell type: Initial culture of cortical neurones from 14 day rat embryos and initial culture of cortical astrocytes from newborn rats. • Culture medium: DMEM-Ham F12 (Invitrogen 21331020) • B27 2% (invitrogen 17504044) • L-glutamine 2 mM (Invitrogen 25030024) • Penicillin 50 UI/ml—Streptomycin 50 μg/ml (Invitrogen 15070063) • Nerve Growth Factor 10 ng/ml (NGF, Invitrogen 13290.010) • Survival medium: MEM (Invitrogen 21090022) • L-glutamine 2 mM (Invitrogen 25030024) • Penicillin 50 UI/ml—Streptomycin 50 μg/ml (Invitrogen 15070063) • Supplement N2 (Invitrogen 17502-048) 1.2 Prior Cytotoxicity • Platelets: 96 wells • Culture time: 8 days • Cells/well: cortical neurones+astrocytes • Product range: from 100 μM then ratio 3 • Replicates: 3 • Cell/product contact: 48 hours • Evaluation parameters: microscopic observation and MTT hydrolysis. • MTT: 3-(4,5-dimethylthiozol-2-yl)-2,5-diphenyltetrazolium bromide 1.3 Treatment and Analysis of the Network of Extensions Marked with Antineurofilament Antibody
# The cortical neurones were obtained from the cortex of 14 day rat embryos cultured in platelet culture medium 96 and then in a stove at 37° C. and 5% CO2 with saturated humidity. After 2 days culture astrocytes obtained from newborn rat cortex were seeded in the wells (in a ratio of 1 astrocyte to 4 neurones). After 10 days culture the mature neurones synthesised neurofilaments (structural protein specific to mature neurones); in addition to this these neurones expressed functional receptors to glutamate on their surfaces and could therefore be intoxicated.
# On the 12th day of culture the medium was replaced by survival medium with or without etifoxine in 3 concentrations and the neurones were or were not intoxicated with glutamate (Sigma G1501) at a strength of 2 mM and 10 mM. Each culture condition was applied to 4 wells. The cultures were incubated for 2 periods (6 and 24 hours).
# A positive control was carried out in the survival culture medium containing Nerve Growth Factor (NGF; 10 ng/ml) and basic Fibroblast Growth Factor (FGFb; 5 ng/ml) and the cells were intoxicated under the same conditions.
# At the end of the two incubation periods (6 and 24 hours) the cell layers were fixed and marked with a anti-68- and 200 kD neurofilament monoclonal antibody (DAKO M0762) and then developed using a mouse anti-immunoglobulin goat antibody conjugate Alexia fluor 488 (Interchim A-11029). Controls without primary antibody were performed. All the controls were negative (no non-specific labelling). After extensive washing with PBS the preparations were observed under epi-fluorescence (Nikon Diaphot 300 microscope).
# 2 images were obtained for each culture well (4 wells per experimental condition) using a Nikon DXM1200F camera controlled by LUCIA 6.0 software.
# All the images were obtained under the same conditions and with identical camera settings.
# The densities of the networks of extensions marked with anti-neurofilament antibody were examined using LUCIA 6.0 software. Initial image processing made it possible to increase the intensity of the specific marking on the extensions. Areas in which marking was positive were binarised and the percentage marking per image was determined (marked surface area/total surface area examined).
# The results (mean values±standard error with respect to the mean (SEM) were expressed as percentage marking per microscope field (n=8 measurements/culture conditions). 2-factor analysis of variance (Etifoxine and glutamate), followed by the Student Newman-Keuls multiple comparisons test was used for statistical comparison of the results. […]
compound,measurement,setting,value
"CCNC1=Nc2ccc(Cl)cc2C(C)(c2ccccc2)O1.Cl (centres unmarked) [etifoxine, 6-chloro-2-ethylamino-4-methyl-4-phenyl-4H-[3,1]benzoxazine hydrochloride]",density of marked neurofilaments,"control culture medium (without glutamate), 6 hours, significant at 10 μM",increased the density of marked neurofilaments in a dose-dependent way
same,density of neurofilaments,"24 hours, 10 μM",increased the density of neurofilaments
same,density of neurofilaments,"24 hours, 1 and 3 μM",without effect
same,density of neurofilaments in the presence of glutamate,"glutamate 2 mM, 24 hours, compound 10 μM",opposed the effects of 2 mM of glutamate
same,density of neurofilaments in the presence of glutamate,"glutamate 2 and 10 mM, 6 hours, compound 3 and 10 μM",opposed the decrease in density of neurofilaments induced by glutamate
